From patent US7098204B2 (C.N.R.S., priority 1999, dated 2006) come the findings set out here.

In one assay the target is GSK-3β (Mus musculus, UniProt Q9WV60). The assay is described as follows: MAP-1B phosphorylation by GSK-3 in cerebellar granule cells. It counts as cell-based, mice. How it is done: Cerebellar granule cells were isolated from newborn mice and purified according to the method of Hatten using Percoll gradients. Cells were plated onto dishes coated with poly-D-lysine (100 μg/ml) and laminin (50 μg/ml) and grown in serum-free medium for 1 day, the cultures were then treated with HD (1–100 μM) for 20 h. Cultures were fixed with 4% formaldehyde in PBS and stored in PBS at 4° C. Cells were permeabilised with 100% methanol and incubated with primary antibodies against GAP-43 and MAP-1B-P (SMI-31, Affiniti) overnight at 4° C. FITC and Texas Red conjugated secondary antibodies were used (Vector). For western blot analysis, cells were lysed in sample buffer and analysed by 8% SDS-PAGE. Proteins were transferred to nitrocellulose membranes and incubated with an antibody to MAP-1B-P (SMI-31) diluted in block solution (0.1% Tween-20, 3% dried skimmed milk in TBS) for 2 h at room temperature. HRP-conjugated secondary antibodies (Amersham) were used and proteins were visualised using the ECL system (Pierce). Blots were scanned using a flat bed scanner (UMAX Astra 1200S).
Sequence of GSK-3β (Q9WV60 whole entry): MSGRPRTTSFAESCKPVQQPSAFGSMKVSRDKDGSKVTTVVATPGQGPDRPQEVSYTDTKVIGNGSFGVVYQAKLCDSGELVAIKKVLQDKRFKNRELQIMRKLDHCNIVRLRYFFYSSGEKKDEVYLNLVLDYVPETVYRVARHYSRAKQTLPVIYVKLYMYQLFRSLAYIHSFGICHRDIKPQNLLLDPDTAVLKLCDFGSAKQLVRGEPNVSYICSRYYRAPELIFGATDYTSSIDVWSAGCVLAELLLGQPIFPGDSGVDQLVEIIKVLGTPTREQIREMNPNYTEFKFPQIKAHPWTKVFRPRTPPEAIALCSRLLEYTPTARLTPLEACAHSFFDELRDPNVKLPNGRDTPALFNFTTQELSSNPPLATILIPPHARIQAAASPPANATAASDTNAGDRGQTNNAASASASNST

The next assay concerns the target T1, erk1 (Homo sapiens, UniProt P27361).
T1 construct: His
The assay is described as follows: erk1 kinase assay. The format is biochemical. Particulars: 15 μM ATP.

The target of another assay is protein kinase C β1 (Homo sapiens, UniProt P05771). Description: protein kinase C β1 assay. Particulars: 15 μM ATP. It counts as biochemical. How it is done: (§1) Kinases activities were assayed in Buffer A or C (unless otherwise stated), at 30° C., at a final ATP concentration of 15 μM. Blank values were subtracted and activities calculated as pmoles of phosphate incorporated for a 10 min. incubation (usually expressed in % of the maximal activity, i.e. without inhibitors). Controls were performed with appropriate dilutions of Me2SO. In some cases phosphorylation of the substrate was assessed by autoradiography after SDS-PAGE. IC50 values were estimated from the dose-response curves. • CDK1/cyclin B was extracted in homogenisation buffer from M phase starfish (Marthasterias glacialis) oocytes and purified by affinity chromatography on p9^CKShs1-Sepharose beads, from which it was eluted by free p9^CKShs1 as described. The kinase activity was assayed in buffer C, with 1 mg histone H1/ml, in the presence of 15 μM [γ-^32P] ATP (3,000 Ci/mmol; 1 mCi/ml) in a final volume of 30 μl. After 10 min. incubation at 30° C., 25 μl aliquots of supernatant were spotted onto 2.5×3 cm pieces of Whatman P81 phosphocellulose paper, and, 20 sec. later, the filters were washed five times (for at least 5 min. each time) in a solution of 10 ml phosphoric acid/liter of water. The wet filters were counted in the presence of 1 ml ACS (Amersham) scintillation fluid. • GSK-3β was either purified from rabbit muscle or expressed in and purified from insect Sf9 cells. […]
Sequence of protein kinase C β1 (P05771 whole entry): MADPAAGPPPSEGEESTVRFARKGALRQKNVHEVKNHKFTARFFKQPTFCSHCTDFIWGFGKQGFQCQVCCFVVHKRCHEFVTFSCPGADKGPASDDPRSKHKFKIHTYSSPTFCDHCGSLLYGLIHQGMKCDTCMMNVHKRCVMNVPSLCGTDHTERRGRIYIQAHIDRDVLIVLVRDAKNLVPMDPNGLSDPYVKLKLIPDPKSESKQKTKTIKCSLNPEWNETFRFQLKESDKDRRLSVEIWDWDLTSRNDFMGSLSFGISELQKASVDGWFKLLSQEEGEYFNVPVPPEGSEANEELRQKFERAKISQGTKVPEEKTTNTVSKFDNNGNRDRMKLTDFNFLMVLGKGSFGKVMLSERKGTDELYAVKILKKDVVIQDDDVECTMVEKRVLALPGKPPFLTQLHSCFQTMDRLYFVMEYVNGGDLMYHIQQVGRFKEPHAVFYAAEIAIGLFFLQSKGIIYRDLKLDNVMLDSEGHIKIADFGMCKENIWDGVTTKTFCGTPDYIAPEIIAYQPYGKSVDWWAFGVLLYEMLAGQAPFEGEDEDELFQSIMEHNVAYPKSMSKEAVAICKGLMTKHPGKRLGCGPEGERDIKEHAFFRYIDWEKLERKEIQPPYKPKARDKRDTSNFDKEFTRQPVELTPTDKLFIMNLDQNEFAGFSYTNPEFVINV

Assay [1] deals with GSK-3β like activity in Sf9 cells. The assay is described as follows: Tau (htau23) phosphorylation in Sf9 cells, Western blotting. It counts as cell-based. To be noted: 50 μM, 5 hrs, Sf9 cells expressing htau23. On the technique in general: A western blot detects proteins with antibodies after separation by electrophoresis.
Description: Cells and viruses. Sf9 cells (InVitrogen, San Diego, Calif.) were grown at 27° C. in monolayer culture Grace's medium (Gibco BRL, Gaithersburg, Md.) supplemented with 10% fetal bovine serum and 50 μg gentamycin/ml and 2.5 μg amphotericin/ml. BaculoGold was obtained from PharMingen (San Diego, Calif.), pVL1392 from In Vitrogen.
Tau transfection. The gene for htau23, the shortest human tau isoform [27] was excised from the bacterial expression vector pNG2 [28] with XbaI and BamHI, and inserted into the baculovirus transfer vector pVL1392 cut with the same restriction endonucleases. The BaculoGold system was used to construct the tau baculovirus containing vector. The BaculoGold DNA is a modified type of baculovirus containing a lethal deletion. Cotransfection of the BaculoGold DNA with a complementing baculovirus transfer vector rescued the lethal deletion of this virus DNA and reconstituted viable virus particles carrying the htau23 coding sequence. Plasmid DNA used for transfections was purified using QIAGEN cartridges (Hilden, Germany). Sf9 cells grown in monolayers (2×10^6 cells in a 60 mm cell culture dish) were cotransfected with baculovirus DNA (0.5 μg BaculoGold DNA) and with vector derivatives of pVL1392 (2 μg) using a calcium phosphate coprecipitation method. […]
For a further assay, the system named is colon, KM20L2. The assay is described as follows: Human cancer cell line KM20L2 proliferation. It counts as cell-based. To be noted: KM-20L2.
Another assay concerns the target Eg2 kinase (Xenopus laevis, UniProt Q91820). Description: Eg2 kinase assay. The format is biochemical. To be noted: 15 μM ATP. How it is done: Enzyme activities were assayed as described in the Experimental Procedures section, in the presence of increasing HD concentrations. IC50's were calculated from the dose-response curves.−, no effect at the highest dose tested (in parentheses).

Another assay deals with protein kinase C ζ (Homo sapiens, UniProt Q05513). The assay is described as follows: protein kinase C ζ assay. It counts as biochemical. To be noted: 15 μM ATP. The procedure: as §1
Sequence of protein kinase C ζ (Q05513 whole entry): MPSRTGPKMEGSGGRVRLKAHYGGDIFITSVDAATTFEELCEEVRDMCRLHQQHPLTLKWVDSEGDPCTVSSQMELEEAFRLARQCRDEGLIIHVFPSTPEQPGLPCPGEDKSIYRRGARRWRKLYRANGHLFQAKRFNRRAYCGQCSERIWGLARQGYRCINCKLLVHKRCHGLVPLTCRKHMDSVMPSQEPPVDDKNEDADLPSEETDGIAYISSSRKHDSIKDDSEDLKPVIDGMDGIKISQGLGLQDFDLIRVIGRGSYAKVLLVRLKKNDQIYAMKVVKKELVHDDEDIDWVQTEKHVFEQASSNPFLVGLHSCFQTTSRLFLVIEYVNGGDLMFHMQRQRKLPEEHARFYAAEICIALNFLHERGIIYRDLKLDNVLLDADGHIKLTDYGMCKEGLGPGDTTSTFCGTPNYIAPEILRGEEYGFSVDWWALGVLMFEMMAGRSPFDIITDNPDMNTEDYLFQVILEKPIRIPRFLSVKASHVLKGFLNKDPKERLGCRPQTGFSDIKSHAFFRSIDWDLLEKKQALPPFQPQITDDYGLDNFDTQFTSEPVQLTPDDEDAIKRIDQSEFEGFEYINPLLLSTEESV
The next assay has as its system ovary, OVCAR-3. The assay is described as follows: Human cancer cell line OVCAR-3 proliferation. The format is cell-based.
Another assay addresses ASK-γ (plant GSK-3) (Arabidopsis thaliana, UniProt P43289). The assay is described as follows: ASK-γ kinase assay. The format is biochemical. The procedure: as §1

Converted amounts (≈) assume the structure as drawn.

Sequence of ASK-γ (plant GSK-3) (P43289 whole entry): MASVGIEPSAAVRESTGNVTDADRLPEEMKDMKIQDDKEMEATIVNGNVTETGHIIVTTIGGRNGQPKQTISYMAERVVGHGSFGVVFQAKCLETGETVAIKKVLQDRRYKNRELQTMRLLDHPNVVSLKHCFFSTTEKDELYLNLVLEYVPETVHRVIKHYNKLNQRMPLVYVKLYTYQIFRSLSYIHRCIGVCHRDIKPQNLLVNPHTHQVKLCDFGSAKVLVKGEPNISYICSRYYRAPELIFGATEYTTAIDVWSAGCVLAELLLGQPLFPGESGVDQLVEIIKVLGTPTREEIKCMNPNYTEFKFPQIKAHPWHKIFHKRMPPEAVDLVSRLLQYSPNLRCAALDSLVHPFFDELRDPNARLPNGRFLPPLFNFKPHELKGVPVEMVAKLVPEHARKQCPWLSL
T1 sequence (P27361 whole entry, species assumed): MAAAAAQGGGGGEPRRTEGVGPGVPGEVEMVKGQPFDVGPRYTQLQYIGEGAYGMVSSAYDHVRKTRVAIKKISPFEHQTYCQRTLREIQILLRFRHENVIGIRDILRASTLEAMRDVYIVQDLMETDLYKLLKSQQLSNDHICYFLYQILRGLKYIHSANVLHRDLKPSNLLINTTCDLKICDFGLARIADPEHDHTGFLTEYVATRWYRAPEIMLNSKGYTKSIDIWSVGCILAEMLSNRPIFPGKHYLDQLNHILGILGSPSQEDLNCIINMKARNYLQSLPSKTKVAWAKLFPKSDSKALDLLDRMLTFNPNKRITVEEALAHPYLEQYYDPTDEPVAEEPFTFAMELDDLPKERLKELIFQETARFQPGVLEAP
Sequence of Eg2 kinase (Q91820 whole entry): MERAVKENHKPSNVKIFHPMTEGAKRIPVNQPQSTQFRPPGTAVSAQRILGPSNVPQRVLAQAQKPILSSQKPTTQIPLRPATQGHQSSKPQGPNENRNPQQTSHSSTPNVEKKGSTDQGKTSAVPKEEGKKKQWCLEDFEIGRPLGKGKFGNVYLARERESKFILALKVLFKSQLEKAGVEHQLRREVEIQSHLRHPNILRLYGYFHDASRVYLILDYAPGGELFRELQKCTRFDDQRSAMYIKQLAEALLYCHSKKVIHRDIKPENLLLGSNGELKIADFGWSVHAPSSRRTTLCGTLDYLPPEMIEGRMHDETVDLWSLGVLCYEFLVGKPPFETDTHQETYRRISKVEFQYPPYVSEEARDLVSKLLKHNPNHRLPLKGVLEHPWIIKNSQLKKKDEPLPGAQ
Description for erk1: Blank values were subtracted and activities calculated as pmoles of phosphate incorporated for a 10 min. incubation (usually expressed in % of the maximal activity, i.e. without inhibitors). Controls were performed with appropriate dilutions of Me2SO. In some cases phosphorylation of the substrate was assessed by autoradiography after SDS-PAGE. […] ATP (3,000 Ci/mmol; 1 mCi/ml) in a final volume of 30 μl. After 10 min. incubation at 30° C., 25 μl aliquots of supernatant were spotted onto 2.5×3 cm pieces of Whatman P81 phosphocellulose paper, and, 20 sec. later, the filters were washed five times (for at least 5 min. each time) in a solution of 10 ml phosphoric acid/liter of water. […] ATP (3,000 Ci/mmol; 1 mCi/ml) in a final volume of 30 μl. […] Its activity was assayed in buffer C as described for CDK1/cyclin B. • CDK2/cyclin A, CDK2/cyclin E, CDK3/cyclin E, CDK4/cyclin D1, CDK6/cyclin D2, His-tagged erk1 and erk2, protein kinase C isoforms, the catalytic subunit of cAMP-dependent protein kinase, cGMP-dependent protein kinase, Myosin light chain kinase, casein kinases 1 & 2, ASK-γ (a plant homologue of GSK-3), insulin receptor tyrosine kinase domain (CIRK-41), c-raf, MAPKK, c-jun N terminal kinase (obtained from Promega), c-src kinase and v-abl kinase were assayed as described [15].

As to `NC1=NC(=O)C(=C2CCNC(=O)c3[nH]c(Br)cc32)N1` [hymenialdisine, 4-(2-amino-4-oxo-2-imidazolin-5-ylidene)-2-bromo-4,5,6,7-tetrahydropyrrolo (2,3-c) azepine-8-one], the “cell morphology and distribution of MAP-1B-P” value on GSK-3β (1 μM, 10 μM, 25 μM, 20 h) was “no noticeable effect”. Also, the “MAP-1B-P in axonal processes” value on GSK-3β (50 μM, 20 h) was “loss of MAP-1B-P from most of the axonal processes”; at GSK-3β (100 μM, 20 h), “loss of MAP-1B-P from processes”. Moreover, the “MAP-1B-P by Western blotting” value at GSK-3β (increasing doses 1–100 μM) is reported as “loss of MAP-1B-P in a dose-dependent manner”. Moreover, the IC50 against erk1 is 0.47 µM; against protein kinase C β1 it was 1.2 µM; in the assay on colon, KM20L2 it was 8.5 µg/mL (≈ 26.2 µM); on Eg2 kinase it was 4 µM; against protein kinase C ζ it was 60 µM; in the assay on ovary, OVCAR-3 it was 1.8 µg/mL (≈ 5.55 µM). This compound had an IC50 against ASK-γ (plant GSK-3) of 0.08 µM. Also, the “AT100 signal (tau phosphorylated at T212 and S214)” value in assay [1] is on record as “disappearance of AT100 signal”.

What is called IC50 is the concentration needed to halve the response being measured. Higher therefore signals lower potency.
